Measurements as given in PubChem BioAssay AID1417 (Emory University Molecular Libraries Screening Center, 2008).

The compounds below were run against Induced myeloid leukemia cell differentiation protein Mcl-1 (Homo sapiens) (UniProt Q07820) (assay: Mcl-1/Noxa binding inhibitor potency, dose response, biochemical, TR-FRET (AID 1417)). Settings: Mcl-1/Noxa peptide interaction, cell-free TR-FRET (terbium/rhodamine), 2 h; measured here: absolute IC50.
Induced myeloid leukemia cell differentiation protein Mcl-1 (Homo sapiens), sequence (Q07820 whole entry, looked up): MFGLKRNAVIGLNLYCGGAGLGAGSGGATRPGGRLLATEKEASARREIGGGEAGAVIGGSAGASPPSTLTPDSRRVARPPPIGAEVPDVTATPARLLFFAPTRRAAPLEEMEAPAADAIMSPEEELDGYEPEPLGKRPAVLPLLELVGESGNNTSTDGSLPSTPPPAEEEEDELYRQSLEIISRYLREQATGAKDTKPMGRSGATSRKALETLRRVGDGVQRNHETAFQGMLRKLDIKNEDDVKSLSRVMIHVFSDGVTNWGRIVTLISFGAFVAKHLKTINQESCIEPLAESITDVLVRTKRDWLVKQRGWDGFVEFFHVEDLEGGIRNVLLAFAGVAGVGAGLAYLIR
Work on COc1ccc(NC(=O)CN2C(=O)/C(=C3\SC(=S)N(C4CCS(=O)(=O)C4)C3=O)c3ccccc32)cc1 (stereo unspecified) yielded an IC50 of 2.54 µM. CCN1C(=O)/C(=C\c2ccc(-c3ccc([N+](=O)[O-])cc3OC)o2)SC1=Nc1cccc(C(=O)O)c1 was tested, and the IC50 was less than 0.4 µM. In the case of Cc1ccc(O)c(NC2=C(Cl)C(=O)N(Cc3ccccc3)C2=O)c1, the IC50 is reported as greater than 54 µM. In the case of O=C(O[C@@H]1OC2COC(=O)c3cc(O)c(O)c(O)c3-c3c(cc(O)c(O)c3O)C(=O)O[C@@H]([C@H]1O)[C@@H]2O)c1cc(O)c(O)c(O)c1, the IC50 is reported as less than 0.4 µM. Compound O=C(O)c1cc(N2N=C(C(F)(F)F)/C(=C/C=C/c3ccco3)C2=O)ccc1Cl has an IC50 of less than 0.4 µM. Cc1nc(C)c(C(=O)Nc2nc3c(C)cccc3s2)o1 gave an IC50 of 2.63 µM. With O=C(c1ccccc1)c1ccc2nc(-c3ccco3)c(-c3ccco3)nc2c1 the IC50 was 4.34 µM. For Cc1nc(COC(=O)c2cc(O)c3ccccc3c2O)cs1, the IC50 was less than 0.4 µM. With COc1cc(/C=C(\C#N)c2nc3ccccc3s2)cc([N+](=O)[O-])c1O the IC50 was 3.37 µM. With CCc1n[nH]c(=S)n1/N=C/c1cc(OC)cc([N+](=O)[O-])c1O the IC50 was less than 0.4 µM. Compound Nc1cc2c(cc1[N+](=O)[O-])OCO2 has an IC50 of 6.98 µM. COc1ccc(O)c(N)c1 gave an IC50 of less than 0.4 µM. For CN(C)c1ccc(NC(=O)CCCc2ccccc2)cc1, the IC50 was greater than 54 µM. In the case of CC(=O)NC1=C(NC2CCS(=O)(=O)C2)C(=O)c2ccccc2C1=O (stereo unspecified), the IC50 is reported as 2.77 µM. In the case of Cc1sc(-n2c(C)cc(/C=C3\SC(=S)NC3=O)c2C)c(C#N)c1C, the IC50 is reported as 4.07 µM. In the case of O=C(O)c1ccccc1/C=N/NC(=O)c1cc(-c2ccco2)nc2ccccc12, the IC50 is reported as less than 0.4 µM. With CCN1C(=O)C(C)S/C1=N\S(=O)(=O)c1ccc(F)cc1 (stereo unspecified) the IC50 was greater than 54 µM. Compound COc1ccc2c(=O)c3c(=O)n(-c4ccc(C)cc4)c(-c4ccccc4)nc3oc2c1 has an IC50 greater than 54 µM. For O=C1CSC(=S)N1/N=C/c1ccc(O)c(O)c1O, the IC50 was less than 0.4 µM. Work on O=C1NC(=O)N(Cc2ccc(F)cc2)C(=O)/C1=C\c1ccc([N+](=O)[O-])s1 yielded an IC50 of 7.45 µM. Compound O=c1oc2ccccc2c2oc3cc(O)c(O)cc3c12 has an IC50 of less than 0.4 µM. In the case of O=C(CSc1nnc(COc2ccccc2Cl)o1)NC(=O)NCc1ccco1, the IC50 is reported as 8.6 µM. O=C1c2cccc3cc([N+](=O)[O-])cc(c23)C(=O)N1/N=C/c1ccc(O)cc1O was tested, and the IC50 was 1.52 µM. In the case of COCCNC(=O)Nc1ccc2nc(-c3ccco3)c(-c3ccco3)nc2c1, the IC50 is reported as less than 0.4 µM. For Cc1ccc(CSc2nnc(SCC(=O)N/N=C/c3c[nH]c4ccccc34)s2)cc1, the IC50 was 10.1 µM. For Cc1cc(C(F)F)n2nc(C(=O)Nc3sc4c(c3C(N)=O)CCC4)nc2n1, the IC50 was 11.4 µM. CC1=NN(c2ccccc2)C(=O)/C1=C/c1c(O)n(-c2ccc(F)c(Cl)c2)[nH]c1=O was tested, and the IC50 was 4.79 µM. Work on COc1ccc(C2=NN(c3nc(-c4ccccc4)c(CC(=O)O)s3)C(c3ccco3)C2)cc1 (stereo unspecified) yielded an IC50 of 11.9 µM. Cc1cc(C(=O)N/N=C/c2ccc(O)c([N+](=O)[O-])c2)c(C)n1-c1ccc(F)cc1 was tested, and the IC50 was 2.33 µM. With O=C1CC(N2CCN(S(=O)(=O)c3ccccc3)CC2)C(=O)N1c1ccccc1 (stereo unspecified) the IC50 was greater than 54 µM. Work on C/C(=N\Nc1ccc(C(=O)O)cc1)c1ccc2c(c1)Nc1ccccc1S2 yielded an IC50 of less than 0.4 µM. CCOc1ccc(-c2ccc(/C=C3/C(=N)N4C=CSC4=NC3=O)o2)c([N+](=O)[O-])c1 was tested, and the IC50 was 1.58 µM. Compound Cn1c(=O)c(C(=O)COC(=O)c2cc(-c3ccco3)nc3ccccc23)c(N)n(CC2CC2)c1=O has an IC50 of 0.449 µM. COC(=O)c1ccc(=O)c2nc3/c(=C/O)c(O)cc(=O)c3[nH]c12 showed an IC50 of less than 0.4 µM. Cc1ccc(CNC(=O)c2ccc3c(=O)[nH]c4c(C(=O)NCC5CCCO5)sc(=S)n4c3c2)cc1 (stereo unspecified) was tested, and the IC50 was 11.1 µM. In the case of C/C=C\C=C/C(=O)Nc1cccc(C2=NOC3(C2)C[C@@H](C(N)=O)N(C(=O)c2ccccc2)C3)c1 (stereo partly specified), the IC50 is reported as 50.9 µM. In the case of Cc1cc(C)c2nc(-c3ccccn3)cc(C(=O)Nc3ccc(S(=O)(=O)Nc4onc(C)c4C)cc3)c2c1, the IC50 is reported as 2.82 µM. With Oc1ccc(N2CCN(c3ncnc4sc5c(c34)CCC5)CC2)cc1 the IC50 was 6.63 µM. CNc1ccc(Br)cc(C(=O)/C=C/c2ccc(Cl)cc2Cl)c1=O gave an IC50 of 1.41 µM. With CN(C)c1ccc(NC(=O)c2ccc([N+](=O)[O-])cc2Cl)cc1 the IC50 was greater than 54 µM. Cc1ccc(-n2c(O)c(C=Nc3ccccc3-c3n[nH]c(=S)[nH]c3=O)c3ccccc3c2=O)cc1C was tested, and the IC50 was 2.75 µM. Nc1ncnc2oc(-c3ccco3)c(-c3ccco3)c12 showed an IC50 of 3.7 µM. Work on CCN(c1ccc(NC(=O)COC(=O)CCc2nc3ccccc3n2-c2ccccc2)cc1)C(C)C yielded an IC50 of less than 0.4 µM. O=C1NC(=S)N/C1=C/c1ccc(-c2c(Br)cc([N+](=O)[O-])cc2Br)o1 showed an IC50 of 1.45 µM. In the case of O=C(Nc1cccc(Cl)c1)Nc1nnc(-c2ccncc2)s1, the IC50 is reported as 4.03 µM. With COc1ccc(Nc2cc(C)c3c(O)cccc3n2)cc1 the IC50 was 7.12 µM. In the case of COc1ccc(CC(=O)n2[nH]c(=O)ccc2=O)cc1OC, the IC50 is reported as less than 0.4 µM. Work on Cc1cc2nc(-c3ccc(SCC(=O)N4CCN(C(=O)c5ccco5)CC4)nc3)[nH]c2cc1C yielded an IC50 of 4.16 µM. In the case of O=C(O)CCc1nc(-c2cccs2)no1, the IC50 is reported as greater than 54 µM. Work on CC1=Nc2ccc(C)cc2/C1=C/c1c(N)n2c(S(=O)(=O)C(C)C)nsc2nc1=O yielded an IC50 greater than 54 µM. With Cc1ccc(C(=O)COC(=O)CNC(=O)c2ccc(N3C(=O)c4ccccc4C3=O)cc2)cc1C the IC50 was greater than 54 µM.
